Laboratory results: patent US12610947B2, “Tobacco axillary bud growth inhibitors and methods of inhibiting growth of tobacco axillary buds” (Drexel Chemical Company, priority 2020, dated 2026)

Assays:
[1] = system: TH241 tobacco; experiment: Example 3 plot study: phytotoxicity on a scale of 0 to 5; format: in vivo; conditions: for Phytotoxicity: scale of 0 to 5
Protocol: (§1) A third study was conducted comparing the effects of various treatment compositions on TH241 tobacco. The study was designed in random blocks. Each test plot was formed by two rows of ten tobacco plants. Each treatment was applied to three separate plots. […] The first application was performed when the first axillary shoots were observed. Additional applications were performed when new axillary shoots were observed. Shoots longer than 3 cm were manually removed at the time of each application. The applications were performed using a manual backpack sprayer, spraying at a low pressure above the plant toward the stalk so that the composition ran down the stalk, contacting the leaf axils. Approximately 13 to 26 milliliters of composition were applied to each plant. The phytotoxicity of the treatment compositions was assessed and recorded on a scale of 0 to 5 based on visible symptoms. The number and size of the axil shoots was recorded every 7 to 14 days following the initial treatment application. Axillary shoots were assigned a level according to their length. Shoots less than 3 cm in length were assigned to level 1. Shoots between 3 and 15 cm were assigned to level 2. Shoots between 15 and 30 cm were assigned to level 3. Shoots between 30 and 45 cm were assigned to level 4. Shoots between 45 and 60 cm were assigned to level 5. And shoots greater than 60 cm were assigned to level 6. An estimated average length of shoots in each plot could then be calculated according to the number of shoots assigned to each level.
Phytotoxicity was assessed 9 days and 26 days after the first application of each treatment. […] Only mild symptoms of phytotoxicity were observed on the remaining plants. […] The phytotoxicity was likely more apparent due to the fact that by day 26, two pelargonic acid treatments had already been performed. […] No further evaluations were carried out.

[2] = system: axillary shoots of TH241 tobacco; experiment: Example 3 plot study: axillary shoot length and effectiveness vs non-treated control; format: in vivo; conditions: for Axillary Shoot Length Results: level assigned by shoot length; for Axillary Shoot Length Results / Effectiveness Results: dosage and applications per Table 8; for Effectiveness Results: compared to the non-treated control group; for Effectiveness: compared to non-treated control
Protocol: as §1, with “level. […] For this reason, treatments 1, 3, 4, and 5 were applied three times; treatments 2, 6, and 7 were applied twice; and treatments 8 and 9 were applied only once. The effectiveness of each treatment method was calculated as compared to the non-treated control group.” for “level.”

[3] = system: tobacco; experiment: Example 4 (Farm A and Farm B): phytotoxicity on a scale of 0 to 5; conditions: in vivo
Protocol: (§2) A fourth study was conducted simultaneously by two separate farms (designated Farm A and Farm B) to further assess the effectiveness of the various treatments including under varying conditions.
The overall study was designed in random blocks. The treatments utilized were Biosucker, Bioantak (37 DOT), Antak-68.5, Beloukha, Sharpen 33%, and a control treatment that was untreated. On each farm, each test plot was formed by a single line of 20 plants. Each treatment was applied to three separate plots on each farm. […] The first application was applied when the first axillary shoots were observed. Additional applications were applied when the new axillary shoots were observed. Shoots longer than 3 cm were manually removed at the time of each application. The applications were performed using a manual backpack sprayer, spraying at a low pressure above the plant toward the stalk so that the composition ran down the stalk, contacting the leaf axils. Approximately 20 milliliters of composition were applied to each plant. The phytotoxicity of the treatment compositions was assessed and recorded on a scale of 0 to 5 based on visible symptoms. The number and size of the axil shoots was recorded every 6 to 8 days following the initial treatment application. […] An estimated average length of shoots in each plot could then be calculated according to the number of shoots assigned to each level. […]

[4] = system: axillary shoots of tobacco; experiment: Example 4 (Farm A and Farm B): axillary shoot length, effectiveness vs non-treated control, effective period; format: in vivo; conditions: Farm A, before second application
Protocol: as §2
The overall study was designed in random blocks. The treatments utilized were Biosucker, Bioantak (37 DOT), Antak-68.5, Beloukha, Sharpen 33%, and a control treatment that was untreated. On each farm, each test plot was formed by a single line of 20 plants. Each treatment was applied to three separate plots on each farm. […] The first application was applied when the first axillary shoots were observed. Additional applications were applied when the new axillary shoots were observed. Shoots longer than 3 cm were manually removed at the time of each application. […] The phytotoxicity of the treatment compositions was assessed and recorded on a scale of 0 to 5 based on visible symptoms. The number and size of the axil shoots was recorded every 6 to 8 days following the initial treatment application. […] An estimated average length of shoots in each plot could then be calculated according to the number of shoots assigned to each level.
The results of the length of axillary shoots measured at Farm A and Farm B are shown in Table 15 and Table 16, respectively. […]
The effectiveness of each treatment method and each farm was calculated as compared to the non-treated control group.

Compound: CCCCCCCCC(=O)O [Pelargonic acid, pelargonic acid]
- Phytotoxicity ([1]; August 12, D + 26 days): 2.0 B
- symptoms of phytotoxicity ([1]; August 21, after a third application): symptoms of phytotoxicity were still more pronounced
- Phytotoxicity ([1]; July 26, D + 9 days): 1.6 C
- Axillary Shoot Length Results ([2]; 5-Aug, D + 19 days): 1.3 Cd
- Axillary Shoot Length Results ([2]; 12-Aug, D + 26 days): 2.6 C
- Axillary Shoot Length Results ([2]; 21-Aug, D + 35 days): 1.2 Abc
- Axillary Shoot Length Results ([2]; 26-Jul, D + 9 days): 1.2 C
- Axillary Shoot Length Results ([2]; 29-Aug, D + 43 days): 2.3 bcde
- Effectiveness Results ([2]; Aug 5, D + 19 days): 61%
- Effectiveness Results ([2]; Aug 12, D + 26 days): 37%
- Effectiveness Results ([2]; Aug 21, D + 35 days): 80%
- Effectiveness Results ([2]; Aug 29, D + 43 days): 61%
- Effectiveness Results ([2]; July 26, D + 9 days): 39%
- Effectiveness ([2]; Oct. 10, D + 85 days): 8%
- Axillary Shoot Length Results ([2]; Oct. 10, D + 85 days): 5.5 B
- Effectiveness Results ([2]; Sept. 11, D + 56 days): 35%
- Axillary Shoot Length Results ([2]; Sept. 11, D + 56 days): 3.9 C
- Effectiveness Results ([2]; Sept. 24, D + 69 days): 16%
- Axillary Shoot Length Results ([2]; Sept. 24, D + 69 days): 5.1 C
- Effectiveness ([2]; Sept. 30, D + 75 days): 9%
- Axillary Shoot Length Results ([2]; Sept. 30, D + 75 days): 5.4 B
- shoot length ([2]; after only 9 days): ~3 cm
- phytotoxicity symptoms [3]: highest levels of burns and deformation
- day until which shoot length was the same as the standard treatment [4]: 27 days
